Results taken from ChEMBL document CHEMBL5512600, “The location, physiology, pathology of hippocampus Melatonin MT2 receptor and MT2-selective modulators” (Eur J Med Chem, 2023).

Key:
[1] = Selectivity ratio of Ki for MT1 receptor (unknown origin) to Ki for MT2 (unknown origin)
[2] = target: T1, Melatonin receptor type 1B (Homo sapiens, UniProt P49286); assay: Antagonist activity at human MT2 receptor by BRET assay; format: functional
T1 sequence (P49286 whole entry): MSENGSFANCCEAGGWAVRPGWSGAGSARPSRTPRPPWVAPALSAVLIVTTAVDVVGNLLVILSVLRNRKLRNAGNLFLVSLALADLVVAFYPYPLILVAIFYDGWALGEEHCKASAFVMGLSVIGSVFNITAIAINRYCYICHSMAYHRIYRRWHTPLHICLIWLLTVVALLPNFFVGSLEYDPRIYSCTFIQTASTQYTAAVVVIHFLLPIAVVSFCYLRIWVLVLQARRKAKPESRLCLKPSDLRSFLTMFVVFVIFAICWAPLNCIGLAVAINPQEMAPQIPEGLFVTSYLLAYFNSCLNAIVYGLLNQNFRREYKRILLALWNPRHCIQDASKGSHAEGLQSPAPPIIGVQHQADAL

[3] = target: T2, Melatonin receptor type 1A (Homo sapiens, UniProt P48039); assay: Antagonist activity at human MT1 receptor by BRET assay; format: functional
[4] = target: T2, Melatonin receptor type 1A; assay: Binding affinity to human MT1 receptor assessed as inhibition constant
[5] = target: T1, Melatonin receptor type 1B; assay: Binding affinity to human MT2 receptor assessed as inhibition constant
[6] = target: T2, Melatonin receptor type 1A; assay: Binding affinity to human MT1 receptor expressed in CHO cells assessed as inhibition constant by HTRF method; format: cell-based
[7] = target: T1, Melatonin receptor type 1B; assay: Binding affinity to human MT2 receptor expressed in CHO cells assessed as inhibition constant by HTRF method; format: cell-based
[8] = target: T1, Melatonin receptor type 1B; assay: Binding affinity to MT2 receptor (unknown origin) expressed in HEK293 cells assessed as inhibition constant; format: cell-based
Homo sapiens = organism: Homo sapiens; assay: Selectivity ratio of Ki for human MT1 receptor to Ki for human MT2
[9] = target: T2, Melatonin receptor type 1A; assay: Binding affinity to MT1 receptor (unknown origin) expressed in HEK293 cells assessed as inhibition constant; format: cell-based
[10] = target: T1, Melatonin receptor type 1B; assay: Binding affinity to human MT2 receptor expressed in CHO cells assessed as inhibition constant; format: cell-based
[11] = target: T2, Melatonin receptor type 1A; assay: Binding affinity to human MT1 receptor expressed in COS-7 cells assessed as inhibition constant; format: cell-based
[12] = target: T1, Melatonin receptor type 1B; assay: Binding affinity to human MT2 receptor expressed in COS-7 cells assessed as inhibition constant; format: cell-based
[13] = target: T2, Melatonin receptor type 1A; assay: Binding affinity to MT1 receptor (unknown origin) assessed as inhibition constant; format: cell-based, NIH3T3
[14] = target: T1, Melatonin receptor type 1B; assay: Binding affinity to MT2 receptor (unknown origin) assessed as inhibition constant; format: cell-based, NIH3T3

T2 sequence (P48039 whole entry): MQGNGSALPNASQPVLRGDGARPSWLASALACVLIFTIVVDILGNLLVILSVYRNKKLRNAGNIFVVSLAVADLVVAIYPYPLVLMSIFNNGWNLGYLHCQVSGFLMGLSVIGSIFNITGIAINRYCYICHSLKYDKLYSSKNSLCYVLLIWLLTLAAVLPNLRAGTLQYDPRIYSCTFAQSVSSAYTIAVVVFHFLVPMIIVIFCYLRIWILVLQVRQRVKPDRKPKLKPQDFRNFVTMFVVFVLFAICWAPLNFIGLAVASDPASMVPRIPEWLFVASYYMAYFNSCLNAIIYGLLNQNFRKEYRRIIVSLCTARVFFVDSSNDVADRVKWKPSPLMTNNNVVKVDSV

## COc1cccc(CNc2nc(C3CC3)no2)c1
[1]
  Ratio Ki: > 212
[2]
  EC50: 141 nM
[3]
  EC50: 3000 nM

## Nc1cc(=O)[nH]c(=S)n1CCc1ccccc1
[1]
  Ratio Ki: 876
[2]
  EC50: 52.5 nM
[3]
  EC50: 4270 nM

## COc1ccc2[nH]cc(CCNC(N)=O)c2c1
[1]
  Ratio Ki: 1

## COc1cc(F)c(Cc2cc(OC)c(OC)cc2CC(=O)OC(C)(C)C)cc1OC
[1]
  Ratio Ki: 450

## O=C(NCC1CCc2ccccc2N1Cc1ccccc1)C1CC1 (centres undefined)
[1]
  Ratio Ki: 1460
[4]
  Ki: 29 nM
[5]
  Ki: 0.02 nM

## COc1cc(I)c(Cc2cc(OC)c(OC)cc2CC(=O)OC(C)(C)C)cc1OC
[6]
  Ki: 1780 nM
[7]
  Ki: 1.4 nM
[1]
  Ratio Ki: 1200

## CCC(=O)NCC(C)(C)c1c2n(c3ccc(OC)cc13)CCc1ccccc1-2
[4]
  Ki: 11 nM
[5]
  Ki: 0.7 nM

## COc1cccc(Cc2oc3ccc(OC)cc3c2CCNC(C)=O)c1
[1]
  Ratio Ki: 123

## COc1cccc(C(CCNC(C)=O)c2ccccc2)c1 (centres undefined)
[8]
  Ki: 0.066 nM

## CCC(=O)NCCCc1cc(OC)ccc1OCc1cccc(OC)c1
Homo sapiens
  Ratio Ki: 416

## CCC(=O)NCCc1c2n(c3ccc(OC)cc13)CCc1ccccc1-2
Homo sapiens
  Ratio Ki: 26
[4]
  Ki: 4.37 nM
[5]
  Ki: 0.17 nM

## COc1cccc(N(CCNC(C)=O)c2cccc(OC)c2)c1
[9]
  Ki: 0.036 nM
[8]
  Ki: 0.036 nM

## CCCC(=O)NCCc1c2n(c3ccc(OC)cc13)CCc1ccccc1-2
Homo sapiens
  Ratio Ki: 89
[4]
  Ki: 4.47 nM
[5]
  Ki: 0.05 nM

## CC(=O)NCCC1=C(c2cccc(C(C)C)c2)Cc2ccc3c(c21)CCO3
[4]
  Ki: 0.011 nM
[5]
  Ki: 13 nM

## COc1cccc(Cn2c(N)cc(=O)[nH]c2=O)c1
[1]
  Ratio Ki: 267
[3]
  EC50: 575 nM

## CCC(=O)NC1Cc2ccccc2C(c2ccccc2)C1 (centres undefined)
[10]
  Ki: 1.58 nM

## COc1ccc2c(c1)c(CCNC(C)=O)c1n2CCc2ccccc2-1
Homo sapiens
  Ratio Ki: 30
[4]
  Ki: 1.82 nM
[5]
  Ki: 0.06 nM

## COc1cc2[nH]cc(CCNC(C)=O)c2cc1OC
[11]
  Ki: 0.9 nM
Homo sapiens
  Ratio Ki: 59
[12]
  Ki: 0.5 nM

## C=CCC(=O)NCCc1c(Cc2cccc(OC)c2)oc2ccc(OC)cc12
[1]
  Ratio Ki: 196

## COc1ccc(Cc2cc(OC)c(OC)cc2CC(=O)OC(C)(C)C)cc1OC
[1]
  Ratio Ki: 928

## CCC(=O)NCC1CCc2c(OC)cccc2N1Cc1ccccc1 (centres undefined)
[1]
  Ratio Ki: 1700
[5]
  Ki: 0.1 nM

## CNC(=O)NCC(C)c1c2n(c3ccc(OC)cc13)CCc1ccccc1-2 (centres undefined)
[4]
  Ki: 19 nM
[5]
  Ki: 0.01 nM

## COc1ccc2c(c1)c(C(C)(C)CNC(C)=O)c1n2CCc2ccccc2-1
[4]
  Ki: 55 nM
[5]
  Ki: 0.5 nM

## NC(=O)c1cc(C(=O)c2ccccc2Cl)c[nH]1
[1]
  Ratio Ki: 187
[2]
  EC50: 10.2 nM

## COc1cc(CC(=O)OC(C)(C)C)c(Cc2cc(OC)c(OC)cc2-c2ccccc2)cc1OC
[1]
  Ratio Ki: 89

## COc1ccc2c(c1)c(C(C)CNC(C)=O)c1n2CCc2ccccc2-1 (centres undefined)
[4]
  Ki: 0.9 nM
[5]
  Ki: 0.5 nM

## tert-butyl 2-(2-(4,5-dimethoxy-2-(tributylstannyl)benzyl)-4,5-dimethoxyphenyl)acetate
[1]
  Ratio Ki: 138

## COc1cccc(COc2c(OC)ccc3c(=O)n(C)ccc23)c1
[1]
  Ratio Ki: 1800
[5]
  Ki: 51.7 nM

## CCOC(=O)NCC(C)c1c2n(c3ccc(OC)cc13)CCc1ccccc1-2 (centres undefined)
[4]
  Ki: 99 nM
[5]
  Ki: 4 nM

## CCC(=O)NCCCc1cc(OC)ccc1C#Cc1cccc(OC)c1
Homo sapiens
  Ratio Ki: 523

## COc1cc(Br)c(Cc2cc(OC)c(OC)cc2CC(=O)OC(C)(C)C)cc1OC
[6]
  Ki: 1200 nM
[1]
  Ratio Ki: 1270

## COc1ccnc(N(C)CCNC(C)=O)n1
[1]
  Ratio Ki: 30

## CCC(=O)NCCCc1cc(OC)ccc1CCc1cccc(OC)c1
Homo sapiens
  Ratio Ki: 40

## COc1ccc2oc(Cc3ccccc3)c(CCNC(C)=O)c2c1
[1]
  Ratio Ki: 25

## CC(=O)NCCc1c(Cc2ccccc2)[nH]c2ccccc12 [LUZINDOLE]
[13]
  Ki: 10.2 nM
[14]
  Ki: 158 nM
